Measurements: PMC4431182 (2015)

What was measured:
Experiment in all cases: electrochemical aptamer-based sensor, square wave voltammetry
[1] = system: High-Gain Parent (RNA, aptamer) CUUGGUUUAGGUAAUGAG; conditions: Na+ 100 mM, Mg2+ 5 mM; 20 mM Tris, pH 7.4; surface-immobilised aptamer; apparent
[2] = system: 7UG (RNA, aptamer) CUUGGUGUAGGUAAUGAG; conditions: Na+ 100 mM, Mg2+ 5 mM; 20 mM Tris, pH 7.4; surface-immobilised aptamer; no quantitative binding, -9% signal change at 30 µM tobramycin
[3] = system: 7UC (RNA, aptamer) CUUGGUCUAGGUAAUGAG; conditions: Na+ 100 mM, Mg2+ 5 mM; 20 mM Tris, pH 7.4; surface-immobilised aptamer; no quantitative binding, 3% signal change at 30 µM tobramycin
[4] = system: 16GU (RNA, aptamer) CUUGGUUUAGGUAAUUAG; conditions: Na+ 100 mM, Mg2+ 5 mM; 20 mM Tris, pH 7.4; surface-immobilised aptamer; apparent
[5] = system: 3-UAC (RNA, aptamer) CUUGGUUUAGGUAAUGAGUAC; conditions: Na+ 100 mM, Mg2+ 5 mM; 20 mM Tris, pH 7.4; surface-immobilised aptamer; apparent

With `NC[C@H]1O[C@H](O[C@H]2[C@H](O)[C@@H](O[C@H]3O[C@H](CO)[C@@H](O)[C@H](N)[C@H]3O)[C@H](N)C[C@@H]2N)[C@H](N)C[C@@H]1O` the KD [1] was 0.08 ± 0.01 µM, the binding [2] was “no” and the binding [3] was “no”. For the same molecule, the Kd [4] was 3.0 ± 0.4 µM and the Kd [5] was 0.17 ± 0.03 µM.
